Laboratory results taken from patent US8110398B2, “Stable cell lines and methods for evaluating gastrointestinal absorption of chemicals” (Absorption Systems Group, LLC, priority 2006, dated 2012).

Assays:
in vitro [1] = conditions: human, pH 7.4
in vitro [2] = conditions: human, Caco-2, pH 7.4
P-gp [3] = target: T1, P-gp (Homo sapiens, UniProt P08183); experiment: in vitro
Description: (§1) Bidirectional Transcellular Transport assay.
(§2) Each determination was performed in duplicate.
The assay was carried out after each clone had been passaged 9 times.

MRP2 mRNA = experiment: RT-PCR of MRP2 mRNA expression in transduced C2BBe1 cells; assay type: cell-based, human; conditions: cells passaged 20 times
Description: (§3) RT-PCR. Total RNA was extracted from cells according to the following protocol. Cells were harvested from culture by centrifugation, resuspended in 1 ml of TRIzol® reagent (Invitrogen, Carlsbad, Calif.), and incubated at room temperature for 5 minutes with gentle shaking. The suspension was transferred to a 1.5 ml centrifuge tube, to which 200 μl of Chloroform was added, followed by an additional 5 minute incubation period with shaking. After incubation, the suspension was centrifuged at 12,000×g for 12 minutes at 4° C. The supernatant was transferred to a fresh, sterile 1.5 ml centrifuge tube, and supplemented with 0.5 ml of 2-propanaol per 1 ml of TRIzol reagent, and incubated for 10 minutes at room temperature. The mixture was then centrifuged at 12,000×g for an additional 12 minutes at 4° C. After centrifugation, the supernatant was removed and the pellet was washed with 75% ethanol. The sample was re-centrifuged at 7500×g for 5 minutes at 4° C., followed by the removal of the supernatant. The pellet was allowed to air dry at room temperature. The pellet was resuspended in pre-warmed (55° C.) nuclease-free water, and incubated at 55° C. for 10 minutes. RNA yield and purity were quantified by absorbance at 260 nm and 280 nm.
(§4) RT-PCR mixtures were set up as 50 μl samples containing buffer, 1-2 μg of RNA, 10 μM of Forward primer, 10 μM of Reverse primer, Taq polymerase, and water. Primers to amplify human P-gylcoprotein were as follows: P-gp Forward 5′-[…]-3′ (SEQ ID NO: 9); and, P-gp Reverse 5′-[…]-3′ (SEQ ID NO: 10). Primers to amplify human MRP2 were as follows: MRP2 Forward 5′-[…]-3′ (SEQ ID NO: 11); and, MRP2 Reverse 5′-[…]-3′ (SEQ ID NO: 12). Primes to amplify human BCRP were as follows: BCRP Forward 5′-[…] 3′ (SEQ ID NO: 13); and, BCRP Reverse 5′-[…] 3′ (SEQ ID NO: 14). Human β-actin was amplified in parallel as a positive control using the following primers: β-actin Forward 5′-[…]-3′ (SEQ ID NO: 15); and, β-actin Reverse 5′-[…]-3′ (SEQ ID NO: 16).
(§5) The PCR cycles proceeded in a programmable thermocycler with the following parameters: cDNA synthesis, 1 cycle, 55° C. for 30 minutes; denaturation, 1 cycle, 94° C. for 2 minutes; PCR amplification, 40 cycles of 94° C. for 15 seconds, 62° C. for 30 seconds, 72° C. for 1 minute; and, final extension, 1 cycle, 72° C. for 5 minutes. Amplification was confirmed by electrophoresis in 2% agarose gels.
For this example, gene expression of MRP2 in C2BBe1 cells was determined by observing both the MRP2 mRNA content as well as the protein content of the cells following viral transduction. To examine mRNA content, total cellular RNA was harvested and amplified by RT-PCR using primers specific to the MRP2 gene (SEQ ID NO: 11 and 12). The RT-PCR products were then analyzed after separation by electrophoresis on a 2% agarose gel.
Vector control (VC) cells were prepared from cells transducted with lentiviruses encoding a non-interfering nucleic acid sequence (SEQ ID NO 27), as described in Example 7. Methods were described in Example 1. […]

BCRP = target: T2, BCRP (Homo sapiens, UniProt Q9UNQ0); experiment: Bidirectional transcellular transport of E3S (BCRP substrate) across C2BBe1-derived monolayers; conditions: compared to control cells
T2 sequence (Q9UNQ0 1-655): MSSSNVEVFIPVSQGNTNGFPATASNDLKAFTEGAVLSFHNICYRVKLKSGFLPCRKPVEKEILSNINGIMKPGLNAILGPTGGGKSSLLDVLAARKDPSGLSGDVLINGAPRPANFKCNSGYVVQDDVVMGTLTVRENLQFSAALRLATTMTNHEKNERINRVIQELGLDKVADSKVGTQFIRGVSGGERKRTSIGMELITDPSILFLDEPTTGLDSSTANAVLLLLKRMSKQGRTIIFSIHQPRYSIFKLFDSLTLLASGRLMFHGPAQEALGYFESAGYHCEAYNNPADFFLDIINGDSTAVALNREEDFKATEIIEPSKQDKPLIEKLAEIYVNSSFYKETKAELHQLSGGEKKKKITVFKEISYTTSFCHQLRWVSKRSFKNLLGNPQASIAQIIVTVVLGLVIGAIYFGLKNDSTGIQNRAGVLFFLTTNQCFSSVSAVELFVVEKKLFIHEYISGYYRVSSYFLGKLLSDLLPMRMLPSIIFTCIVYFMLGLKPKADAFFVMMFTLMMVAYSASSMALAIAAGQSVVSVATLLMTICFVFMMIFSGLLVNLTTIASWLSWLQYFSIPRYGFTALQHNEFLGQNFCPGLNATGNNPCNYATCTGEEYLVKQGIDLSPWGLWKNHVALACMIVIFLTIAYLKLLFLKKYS
Description: as §1, §2
Each of the five shRNA/BCRP knockdown clone cells were seeded on transwells for three weeks for the transport assay.

P-gp mRNA = experiment: RT-PCR of P-gp mRNA expression in transduced C2BBe1 cells; assay type: cell-based, human; conditions: for P-gp mRNA expression relative to control C2BBe1 cells: RT-PCR, shRNA/P-gp clone cells
Description: as §3, §4, §5
Gene expression of P-gp in knockdown cells (shRNA/P-gp clones #83, 84, 85, 86, and 87) was determined by observing P-gp mRNA content, protein content and protein functional activity. RT-PCR was used to determine the expression of the P-gp mRNA. Total cellular RNA was harvested and amplified using primers specific to P-gp mRNA. RT-PCR products were then separated by electrophoresis on a 2% agarose gel. It was determined that 4 of the 5 shRNA/P-gp clone cells contained substantially less P-gp mRNA than control C2BBe1 cells (FIG. 2, top panel). β-actin was amplified, in parallel, as a positive control, and its expression was not affected by the interfering shRNA (FIG. 2, bottom panel).

BCRP mRNA = experiment: RT-PCR of BCRP mRNA expression in transduced C2BBe1 cells; assay type: cell-based, human; conditions: between passages 5 and 20
Description: as §3, with “The sample was re-centrifuged at 7500×g for 5 minutes at 4° C., followed by the removal of the supernatant. The pellet was allowed to air dry at room temperature. The pellet was resuspended in pre-warmed (55° C.) nuclease-free water, and incubated at 55° C. for 10 minutes.” left out, “nm. […]” for “nm.”
For RT-PCR, total cellular RNA was harvested as described in Examples 1 and 3 and amplified by RT-PCR using primers specific to BCRP mRNA (SEQ ID NOs: 13 and 14). The RT-PCR products were separated by electrophoresis on a 2% agarose gel and analyzed to determine whether shRNA/BCRP clone cells produced substantially less BCRP mRNA than C2BBe1 cells transduced with a non-interfering shRNA vector control.

P-gp [4] = target: T1, P-gp; experiment: Calcein-AM assay; conditions: transduced C2BBe1 cells vs Un-KD
Description: Calcein-AM assay. To determine activity of the P-gp protein, calcein-AM assays were conducted.
To determine the P-gp activity, cells were plated in 96-well tissue culture plates and cultured for 48. After 48 hours, cell culture media was removed and the cells were washed with phosphate buffered saline solution (PBS). After washing, cells were incubated with 1 μM calcein-AM for 30 minutes. […] After incubation with calcein-AM, the cells were rinsed with fresh control buffer and fluorescence was measured using a Fluo-star fluorescence plate reader (BMG Lab Technologies, N.C.) with excitation and emission filters set at wavelengths of 485 nm and 538 nm, respectively.
Calcein-AM efflux is not mediated by BCRP. Therefore, any increase in calcein-AM uptake by the cells can be attributed to P-gp inhibition. The cells were plated in 96-well tissue culture plates and cultured for 48 hours. After 48 hours, cell culture media was removed and the cells were washed with phosphate buffered saline solution (PBS). After washing, cells were incubated with 1 μM calcein-AM for 30 minutes. […] After incubation with calcein-AM, the cells were rinsed with fresh control buffer and fluorescence was measured using a Fluo-star fluorescence plate reader (BMG Lab Technologies, N.C.) with excitation and emission filters set at wavelengths of 485 nm and 538 nm, respectively. The assay was carried out after each clone had been passaged 9 times.

T1 sequence (P08183 whole entry): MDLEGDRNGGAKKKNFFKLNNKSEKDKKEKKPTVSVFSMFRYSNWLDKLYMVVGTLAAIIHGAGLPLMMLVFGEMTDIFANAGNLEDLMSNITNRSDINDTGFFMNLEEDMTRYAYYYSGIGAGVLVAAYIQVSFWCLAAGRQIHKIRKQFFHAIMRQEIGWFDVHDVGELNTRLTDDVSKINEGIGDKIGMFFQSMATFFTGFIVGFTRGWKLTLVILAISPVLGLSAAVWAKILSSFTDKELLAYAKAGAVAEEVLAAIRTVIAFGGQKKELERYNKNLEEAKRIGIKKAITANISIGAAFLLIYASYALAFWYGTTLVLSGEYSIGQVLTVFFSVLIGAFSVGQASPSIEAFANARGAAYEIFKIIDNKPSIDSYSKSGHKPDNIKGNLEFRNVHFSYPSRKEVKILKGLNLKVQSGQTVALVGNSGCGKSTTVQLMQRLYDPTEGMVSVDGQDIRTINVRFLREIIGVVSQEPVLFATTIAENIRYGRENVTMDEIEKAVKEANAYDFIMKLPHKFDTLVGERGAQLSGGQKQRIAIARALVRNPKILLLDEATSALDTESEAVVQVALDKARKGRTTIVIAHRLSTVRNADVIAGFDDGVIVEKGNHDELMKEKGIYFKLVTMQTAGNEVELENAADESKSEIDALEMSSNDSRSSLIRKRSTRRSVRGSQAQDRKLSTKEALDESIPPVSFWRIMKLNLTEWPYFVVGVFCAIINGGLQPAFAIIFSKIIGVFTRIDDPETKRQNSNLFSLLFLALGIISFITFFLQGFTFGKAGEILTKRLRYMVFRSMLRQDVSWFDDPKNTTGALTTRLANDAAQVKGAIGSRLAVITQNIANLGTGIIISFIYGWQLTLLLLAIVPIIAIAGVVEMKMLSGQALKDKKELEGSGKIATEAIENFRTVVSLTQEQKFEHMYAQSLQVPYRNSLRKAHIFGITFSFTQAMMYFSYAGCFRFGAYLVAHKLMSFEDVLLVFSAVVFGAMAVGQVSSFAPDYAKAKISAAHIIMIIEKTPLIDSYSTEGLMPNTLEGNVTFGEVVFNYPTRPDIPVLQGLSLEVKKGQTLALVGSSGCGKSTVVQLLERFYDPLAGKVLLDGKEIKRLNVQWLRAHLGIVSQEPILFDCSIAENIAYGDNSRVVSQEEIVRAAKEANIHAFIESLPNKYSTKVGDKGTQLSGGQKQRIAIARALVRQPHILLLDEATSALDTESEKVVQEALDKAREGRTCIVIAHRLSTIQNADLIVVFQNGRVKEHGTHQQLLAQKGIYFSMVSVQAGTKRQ

| Molecule | efflux ratio at 2 h (in vitro [1]) | efflux ratio at 2 h (in vitro [2]) | P-gp function by intracellular calcein fluorescence (P-gp [4]) | P-gp mRNA expression relative to control C2BBe1 cells (P-gp mRNA) | also measured |
| --- | --- | --- | --- | --- | --- |
| Cc1cc(=O)n(-c2ccccc2)n1C [Antipyrine] | 0.92 | 0.84 |  |  |  |
| CNCCCN1c2ccccc2CCc2ccccc21 [Desipramine] | 6.84 | 5.59 |  |  |  |
| C[C@H]1O[C@@H](O[C@H]2[C@@H](O)C[C@H](O[C@H]3[C@@H](O)C[C@H](O[C@H]4CC[C@@]5(C)[C@H](CC[C@@H]6[C@@H]5C[C@@H](O)[C@]5(C)[C@@H](C7=CC(=O)OC7)CC[C@]65O)C4)O[C@@H]3C)O[C@@H]2C)C[C@H](O)[C@@H]1O [Digoxin] |  |  |  |  | Papp A→B at 2 h (P-gp [3]; Caco-2, pH 7.4, Efflux of digoxin A-B): 2 nm/s; Papp B→A at 2 h (P-gp [3]; Caco-2, pH 7.4, Efflux of digoxin B-A): 36.9 nm/s; Papp B→A at 2 h, 10 µM (P-gp [3]; Caco-2, pH 7.4, Papp B-A (Digoxin)): 82.4 nm/s |
| COc1cc([C@@H]2c3cc4c(cc3[C@@H](O[C@@H]3O[C@@H]5CO[C@@H](C)O[C@H]5[C@H](O)[C@H]3O)[C@H]3COC(=O)[C@H]23)OCO4)cc(OC)c1O [Etoposide] | 11.5 | 13.7 |  |  |  |
| shRNA/BCRP 801: 21-nucleotide sequence targeting human BCRP gene, SEQ ID NO: 25, lentivirally transduced into C2BBe1 cells; clone #801 (CCGGGCTGTGGCATTAAACAGAGAACTCGAGTTCTCTGTTTAATGCCACAGCTTTTTG; listed as Homo Sapiens) |  |  |  |  | MRP2 mRNA levels in shRNA/BCRP clone cells (MRP2 mRNA): reduced; inhibition for BCRP function in E3S transport (BCRP): 96.43%; P-gp mRNA levels in shRNA/BCRP clone cells (P-gp mRNA; compared with #799 and control cells): higher; BCRP mRNA knockdown over passages (BCRP mRNA): steadily increased |
| shRNA/P-gp #83: shRNA to human P-gp, SEQ ID NO: 1, lentivirally transduced into C2BBe1 cells; clone #83 (CCGGCCGAACACATTGGAAGGAAATCTCGAGATTTCCTTCCAATGTGTTCGGTTTTTG; listed as Homo Sapiens) |  |  | significantly decreased | significantly reduced |  |
| shRNA/P-gp #84: shRNA to human P-gp, SEQ ID NO: 2, lentivirally transduced into C2BBe1 cells; clone #84 (CCGGGCAGCAATTAGAACTGTGATTCTCGAGAATCACAGTTCTAATTGCTGCTTTTTG; listed as Homo Sapiens) |  |  | significantly decreased | significantly reduced |  |
| shRNA/P-gp #85: shRNA to human P-gp, SEQ ID NO: 3, lentivirally transduced into C2BBe1 cells; clone #85 (CCGGCGACAGAATAGTAACTTGTTTCTCGAGAAACAAGTTACTATTCTGTCGTTTTTG; listed as Homo Sapiens) |  |  | significantly decreased | significantly reduced |  |
| shRNA/P-gp #86: shRNA to human P-gp, SEQ ID NO: 4, lentivirally transduced into C2BBe1 cells; clone #86 (CCGGGCTCATCGTTTGTCTACAGTTCTCGAGAACTGTAGACAAACGATGAGCTTTTTG; listed as Homo Sapiens) |  |  | significantly decreased | significantly reduced |  |
| shRNA/P-gp #87: shRNA to human P-gp, SEQ ID NO: 5, lentivirally transduced into C2BBe1 cells; clone #87 (CCGGGCTGCTTTCCTGCTGATCTATCTCGAGATAGATCAGCAGGAAAGCAGCTTTTTG; listed as Homo Sapiens) |  |  | significantly decreased | significantly reduced |  |
